According to patent publication US10844044B2 (Vanderbilt University, priority 2018, dated 2020):
Where two headings read alike, the source gives them in different places.

Assays:
WDR5 = WDR5 (Homo sapiens (Human), UniProt P61964); assay: TR-FRET binding assay (displacement of 10mer-Thr-FAM probe from WDR5); details: read-out: Ki for Inhibition of WDR5 by TR-FRET assay
[1] = test system: MV4:11 human cancer cell lines; assay: Anti-proliferative activity, CellTiter-Glo viability assay, 7 day protocol; format: cell-based; details: Homo sapiens, MV4-11, 168 h, MV4:11 cells, 7 day incubation, read-out: GI50 on cellular proliferation of MV4:11 human cancer cell lines
In short: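 MV4:11 cells seeded at 3600 cells/ml and exposed to compounds for 7 days, 0.1% DMSO final. Viability measured by CellTiter-Glo luminescence. GI50 from three biological replicates, each in technical triplicate, given as mean ± S.E.M.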

[2] = TR-FRET, 10mer-Thr-FAM probe, WDR5-His tag 2 nM, pH 7.0

SMILES	Ki (WDR5; [2]) [nM]	GI50 [1] [nM]	Ki (WDR5) [nM]
Cc1cc([C@@H](NC(=O)c2cc(CN3CCOC3=N)cc(-c3ccc(F)cc3C(F)(F)F)c2)C2CC2)ccc1F [Example 285, (S)—N-(Cyclopropyl(4-fluoro-3-methylphenyl)methyl)-4′-fluoro-5-((2-iminooxazolidin-3-yl)methyl)-2′-(trifluoromethyl)-[1,1′-biphenyl]-3-carboxamide]	< 0.1	< 100	–
COc1cc([C@@H](NC(=O)c2cc(Cn3ccn(C)c3=N)cc(-c3cn(C)nc3C(F)(F)F)c2)C2CC2)ncc1F [Example 221, (S)—N-(Cyclopropyl(5-fluoro-4-methoxypyridin-2-yl)methyl)-3-((2-imino-3-methyl-2,3-dihydro-1-imidazol-1-yl)methyl)-5-(1-methyl-3-(trifluoromethyl)-1H-pyrazol-4-yl)benzamide]	< 0.1	< 100	–
Cn1cc(-c2cc(CN3CCCC3=N)cc(C(=O)N[C@H](c3ccc(F)c(F)c3)C3CC3)c2)c(C(F)(F)F)n1 [Example 341, (S)—N-(Cyclopropyl(3,4-difluorophenyl)methyl)-3-((2-iminopyrrolidin-1-yl)methyl)-5-(1-methyl-3-(trifluoromethyl)-1H-pyrazol-4-yl)benzamide]	0.35	100	–
COc1ccnc(CNC(=O)c2cc(Cn3ccn(C)c3=N)cc(-c3cc(C)ccc3OC)c2)c1 [Example 10, 5-((2-Imino-3-methyl-2,3-dihydro-1H-imidazol-1-yl)methyl)-2′-m ethoxy-N-((4-methoxypyridin-2-yl)methyl)-5′-methyl-[1,1′-biphenyl]-3-carboxamide]	1.5	2300	–
CCn1cc(-c2cc(Cn3ccn(C4CC4)c3=N)cc(C(=O)N[C@H](c3ccc(Cl)c(Cl)c3)C3CC3)c2)c(C(F)(F)F)n1 [Example 162, (S)—N-(Cyclopropyl(3,4-dichlorophenyl)methyl)-3-((3-cyclopropyl-2-imino-2,3-dihydro-1H-imidazol-1-yl)methyl)-5-(1-ethyl-3-(trifluoromethyl)-1H-pyrazol-4-yl)benzamide]	< 0.1	130	–
CCOc1c(C(=O)N[C@H](c2ccc(F)c(C)c2)C2CC2)cc(Cn2ccn(C)c2=N)cc1-c1cn(C)nc1C(F)(F)F [Example 210, (S)—N-(Cyclopropyl(4-fluoro-3-methylphenyl)methyl)-2-ethoxy-5-((2-iminio-3-methyl-2,3-dihydro-1H-imidazol-1-yl)methyl)-3-(1-methyl-3-(trifluoromethyl)-1H-pyrazol-4-yl)benzamide]	< 0.1	< 100	–
CCn1cc(-c2cc(CN3CCSC3=N)cc(C(=O)N[C@H](c3ccc(F)c(C)c3)C3CC3)c2)c(C(F)(F)F)n1 [Example 312, (S)—N-(Cyclopropyl (4-fluoro-3-methylphenyl)methyl)-3-(1-ethyl-3-(trifluoromethyl)-1H-pyrazol-4-yl)-5-((2-iminothiazolidin-3-yl)methyl)benzamide]	< 0.1	< 100	–
Cc1cnccc1-c1cc(Cn2ccn(C)c2=N)cc(C(=O)NCc2ccc(Cl)c(Cl)c2)c1 [Example 25, N-(3,4-dichlorobenzyl)-3-((2-imino-3-methyl-2,3-dihydro-1H-imidazol-1-yl)methyl)-5-(3-methylpyridin-4-yl)benzamide]	1.3	6100	–
CCn1ccn(Cc2cc(C(=O)N[C@H](c3ccc(F)c(C)c3)C3CC3)cc(-c3cccnc3C(F)(F)F)c2)c1=N [Example 114, (S)—N-(Cyclopropyl(4-fluoro-3-methylphenyl)methyl)-3-((3-ethyl-2-imino-2,3-dihydro-1H-imidazol-1-yl)methyl)-5-(2-(trifluoromethyl)pyridin-3-yl)benzamide]	–	300	< 0.1
Cc1cc([C@@H](NC(=O)c2cc(Cn3cccc(F)c3=N)cc(-c3cn(C)nc3C(F)(F)F)c2)C2CC2)ccc1F [Example 351, (S)—N-(Cyclopropyl(4-fluoro-3-methylphenyl)methyl)-3-((3-fluoro-2-iminopyridin-1(2H)-yl)methyl)-5-(1-methyl-3-(trifluoromethyl)-1H-pyrazol-4-yl)benzamide]	< 0.1	< 100	–
